The values that follow come from patent US11021472B2, “Use of compounds comprising two or more hydrophobic domains and a hydrophilic domain comprising PEG moieties for stabilization of a cell” (Roche Diagnostics Operations, Inc., priority 2013, dated 2021).

“And” between values parts separate entries of the source, which are not always exact repeats. Equal entries are not always repeated.

The subject of test [1] is WBCs. The test can be described thus: Recovery rate of cells after immobilization on streptavidin (SA) plate. Type of test: cell-based. To be noted: WBCs, 100 nmol/10e6 cells. Here is the method: X=hydrophobic moiety, […]=fluorescein In the following experiment, the recovery rate of cells was determined.
Test [2] has as its system WBC. To be noted: Example 5 B; centrifugation 10 min, 300×g.
The test system of test [3] is WBC. The test can be described thus: WBC recovery rate after centrifugation (stabilization of cells). Type of test: cell-based, human. To be noted: Centrifugation 10 min, 300×g. Here is the method:
(§1) Centrifugation characteristics: 10 min, 300×g.
as §1
The respective left, middle and right columns per assay represent different Experimenters 1, 2 and 3. […] Centrifugation characteristics: 10 min, 300×g. Molecule: Cholesteryl-TEG-Cholesteryl-TEG-(SpacerC18)7-Fluos-Biotin-TEG.
Following molecules were tested: 1234: 5′-(Cholesteryl-TEG)2-Spacer C18-dT-Biotin-TEG-3′; 1248: 3′-(Cholesteryl-TEG)2-PEG2000-Fluos-Biotin-TEG-5′ INVERS; 1254: 3′-(Cholesteryl-TEG)2-SpacerC18-Fluos-Biotin-TEG-5′ INVERS; 1255: 3′-(Myristic acid)2-PEG2000-dT-Biotin-TEG-5′ INVERS. […] Centrifugation characteristics: 20 min, 300×g. Respective left column: 10 min incubation with molecule. Respective middle column: 1 h min incubation with molecule. Respective right column: 2 h incubation with molecule.
Following molecules were tested: 1255: 3′-(Myristic acid)2-PEG2000-dT-Biotin-TEG-5′ INVERS; 1234: 5′-(Cholesteryl-TEG)2-Spacer C18-dT-Biotin-TEG-3′; 1248: 3′-(Cholesteryl-TEG)2-PEG2000-Fluos-Biotin-TEG-5′ INVERS; 1254: 3′-(Cholesteryl-TEG)2-SpacerC18-Fluos-Biotin-TEG-5′ INVERS. […] Centrifugation characteristics: 20 min, 500×g. Respective left column: 10 min incubation with molecule. Respective middle column: 1 h min incubation with molecule. Respective right column: 3 h incubation with molecule.
Following molecules were tested: 1255: 3′-(Myristic acid)2-PEG2000-dT-Biotin-TEG-5′ INVERS; 1234: 5′-(Cholesteryl-TEG)2-Spacer C18-dT-Biotin-TEG-3′; 1248: 3′-(Cholesteryl-TEG)2-PEG2000-Fluos-Biotin-TEG-5′ INVERS; 1254: 3′-(Cholesteryl-TEG)2-SpacerC18-Fluos-Biotin-TEG-5′ INVERS. […] Centrifugation characteristics: 20 min, 1000×g. Respective left column: 10 min incubation with molecule. Respective middle column: 1 h min incubation with molecule. Respective right column: 2 h incubation with molecule.
Stabilization is typically determined on a population of cells, e.g. 2, 10, 100 or more cells, and the respective mean viability of the cell populations are compared. […] Viability may be determined by determining cell morphology, cell viability and/or cell recovery. Methods for determining cell morphology, cell viability and cell recovery are known in the art. […] For determining cell morphology, visual inspection by microscopy may be performed. For determining cell viability, a cell viability test using WST-1 proliferation kit (RAS) may be performed.

In test [4] the test system is MDA-MB468. The test can be described thus: Labelling (staining) of cells with labelled molecules. The test is classed as cell-based. An excerpt: (§2) As shown in the examples, a compound for use according to the invention, wherein the compound comprises a label moiety, is contacted with a cell. As labelling is preferably done with viable or potentially viable cells, the cells are typically present in an aqueous solution, which is preferably buffered and/or contains nutrients, e.g. the cells are suspended in PBS. The labeled compound for use according to the invention may be added to the cells, e.g. in form of a solution, e.g. as aqueous solution by methods known in the art, as pipetting.

Test [5] deals with Epithelial cells. The test is described as above. Type of test: cell-based.
Excerpt: as §2

For test [6], the system named is U937. The test is described as above. Type of test: cell-based.
Excerpt: as §2

The subject of test [7] is WBCs. The test is described as above. Type of test: cell-based.
Excerpt: as §2

Test [8] has as its system Hela. Described as above. The test is classed as cell-based.
Excerpt: as §2

The test system of test [9] is Jurkats. Described as above. Type of test: cell-based.
Excerpt: as §2

For test [10], the system named is NIH 3T3. The test is described as above. Type of test: cell-based.
Excerpt: as §2

Test [11] has as its system COS 7. The test is described as above. The test is classed as cell-based.
Excerpt: as §2

Test [12] deals with CHO. Described as above. Type of test: cell-based.
Excerpt: as §2

With Biotin-PEG-Lys-(C18)2, the “Recovery Rate” value was 83.9% and 75.0% and 66.0% in [1] (listed as Biotin-PEG-Lysin-(C18)2); 33.0% in test [1] (may be to due 1.5-2 h exposure of plate). For the same molecule, the “time within which cell immobilization is enabled” value in [2] is ≤ 3.5 h. Further, the “WBC recovery rate after centrifugation: dependence on molecule concentration” value in test [3] was “The higher the molecule concentration, the higher the cell recovery rate after centrifugation”.
As to “5′-alphaTocopherolTEG-PEG2000-Fluos-3′ [BMO 29.891131]”, the “staining of cells by labelled molecule” value in test [4] is on record as “✓”; in test [5] it was “✓”; in test [6], “✓”; in test [7], “✓ not all”.
Regarding `CCCCCCCCCCCCCCCC(=O)OC[C@H](COP(=O)(O)OCCNC(=O)CCc1ccc2n1[B-](F)(F)[N+]1=C(C)C=C(C)C1=C2)OC(=O)CCCCCCCCCCCCCCC.CCN(CC)CC` [Phosphatidylethanolamine, N-(4,4-difluoro-5,7-dimethyl-4-bora-3a,4a-diaza-s-indacene-3-propionyl)-1,2-dihexadecanoyl-sn-glycero-3-phosphoethanolamine, triethylammonium salt], in test [8], the “staining of cells by labelled molecule” value is recorded as “x/✓ very weak”.
With “5′-CholesterylTEG-CholesterylTEG-PEG2000-Fluos-3′ [BMO 29.891133]”, the “staining of cells by labelled molecule” value in test [9], in [4], in [5], in test [10], in test [8] and in test [6] was “✓” throughout. The “staining of cells by labelled molecule” value is recorded as 50-200 ms) ✓ in [7], “✓” in test [11] and “✓” in [12].
For the molecule `CCCCCCCCCCCCCCCCCCCCCC[N+]1=C(/C=C/C=C2/N(CCCCCCCCCCCCCC)c3ccccc3C2(C)C)C(C)(C)c2ccccc21.[I-]` [PKH26], the “staining of cells by labelled molecule” value in [9] is given as “✓”; in test [4], “✓”; in [5], “✓ not all”; in test [10] it was “✓”; in test [8], “✓*”; in test [6] it was “✓”. In addition, the “staining of cells by labelled molecule” value was “not stained) ✓” in test [7], “✓” in test [11] and “✓” in [12].
For the molecule `CCCCC/C=C\C/C=C\CCCCCCCCN1C(=CC=CC2=[N+](CCCCCCCC/C=C\C/C=C\CCCCC)c3ccccc3C2(C)C)C(C)(C)c2ccccc21.[O-][Cl+3]([O-])([O-])[O-]` [Linol, 1,1′-dilinoleyl-3,3,3′,3′-tetramethylindocarbocyanine perchlorate], the “staining of cells by labelled molecule” value in test [9], in test [4], in [5], in test [10], in test [8] and in test [6] was “✓” each time. The “staining of cells by labelled molecule” value in test [7] is recorded as 20-50 ms) ✓; in [11], “✓”; in [12], “✓”.
Regarding “5′-Cholesteryl-TEG-PEG2000-Fluos-3′ [BMO 29.891132]”, the “staining of cells by labelled molecule” value in test [4] is given as “✓”; in test [5] it was “✓”; in test [6] it was “✓”; in test [7], “✓ not all”.
For `CCCCCCCCCCCCCCCCCCN1C(=CC=CC2=[N+](CCCCCCCCCCCCCCCCCC)c3ccccc3C2(C)C)C(C)(C)c2ccccc21.[O-][Cl+3]([O-])([O-])[O-]` [1,1′-Dioctadecyl-3,3,3′,3′-tetramethylindocarbocyanin perchlorate], the “staining of cells by labelled molecule” value is listed as “✓” in [9]; “✓” in test [4]; “✓” in test [5]; “✓*” in [10]; “✓” in [8]; “✓” in test [6]. The figures for the “staining of cells by labelled molecule” value in [7], in [11] and in [12] were “✓ not all”, “✓” and “✓”, respectively.
With `CCCCCCCCCCCCC/C=C/[C@@H](O)[C@H](COP(=O)([O-])OCC[N+](C)(C)C)NC(=O)CCCCc1ccc2n1[B-](F)(F)[N+]1=C(C)C=C(C)C1=C2` [Sphingomyelin, N-(4,4-difluoro-5,7-dimethyl-4-bora-3a,4a-diaza-s-indacene-3-pentanoyl)sphingosyl phosphocholine], the “staining of cells by labelled molecule” value in test [5] is given as “✓”; in test [8], “✓”; in [7], “(x)- very bad”; in [12] it was “x very weak”.
